Data taken from US6808877B2, “Ligands for FPR class receptors that induce a host immune response to a pathogen or inhibit HIV infection” (priority 2000, dated 2004).
“Also recorded” adds a separate entry of the source. Read-outs that look alike come from different tables or passages of the source.

Experiments:
CCR5 = CCR5 serine phosphorylation in monocytes (anti-phosphoserine IP, anti-CCR5 immunoblot); assay type: cell-based, human; conditions: human monocytes; for serine phosphorylation of CCR5: 37° C.
Description: Monocytes were isolated by counter-flow elutriation from the peripheral blood of normal donors (NIH Clinical Center, Transfusion Medicine Department, Bethesda, Md.) and enriched for mononuclear cells by using counter-flow elutriation. The purity of the cell preparations was examined by morphology after cytospin, and was >90%. The cells were stimulated with different concentrations of chemokines for indicated time periods at 37° C. and lysed for 20 min on ice with periodic mixing in lysis buffer (1% Triton X-100, 20 mM, Tris-HCl pH 8.0, 137 mM NaCl, 15% glycerol, 5 mM EDTA) containing phosphatase and protease inhibitors (1 mM phenylmethylsulfonyl fluoride, 5 μg/ml aprotinin, 5 μg/ml leupeptin, 1 mM sodium orthovanadate, 1 mM EGTA). Cell lysates were precleared with 30 µl of washed Protein-A sepherose beads (Pharmacia Biotech. Piscataway, N.J.), 1 μg of polyclonal anti-phospho-serine antibody (Zymed Laboratory Inc. South San Francisco, Calif.) was added to 200 μg cell lysates diluted with 2×immunoprecipitation (IP) buffer (1×buffer contains 1%Triton X-100, 10 mM Tris-HCl pH 7.4, 137 mM NaCl, 1 mM EDTA, 1 mM EGTA, 0.2 mM sodium orthovanadate, 0.2 mM PMSF, 0.5% NP-40). The reaction mixture was incubated at 4° C. overnight under constant rocking. The immune complex was captured by adding 50 μl of washed Protein-A sepharose beads (25 μl packed beads) and incubation of the reaction mixture at 4° C. for additional 2 hours. The beads were spun down (10 seconds at 14,000 rpm), the pellets were washed 3 times with ice-cold IP buffer, resuspended in 30 μl of 2×Laemmli sample buffer (126 mM Tris-HCl, 20% Glycerol, 4% SDS, 0.005% bromophenol blue with or without addition of 1% 2-mercaptoethanol, Novex, San Diego, Calif.) and boiled for 5 min to elute the immune complex. After electrophoresis on 4-12% SDS-PAGE precast gel (Novex), the proteins were transferred to Immobilon P membranes (Millipore, Bedford, Mass.). The membranes were blocked in freshly prepared PBS containing 3% dry milk 2 h, then were incubated with 1 μg/ml of polyclonal anti-CCR5 antibody (Millenium Biotechnology, Ramona, Calif.) overnight at 4° C. followed by washing 3 times with PBS containing 0.05% Tween 20. The membranes were incubated with a horse radish-peroxidase conjugated goat anti-rabbit IgG (1:5000) (Sigma, St. Louis, Mo.) in PBS containing 3% dry milk for 1 hour at room temperature with agitation. After washing 3 times with PBS-0.05% Tween 20, the membranes were incubated with Super Signal Chemiluminescent Substrate Stable Peroxide Solution (Pierce, Rockford, Ill.) for 1 min, and exposed to BIOMAX-MR film (Eastman Kodak Company, Rochester, N.Y.).
Monocytes stimulated with different concentrations of stimulants for indicated time periods at 37° C. were lysed for 20 min on ice with periodic mixing in lysis buffer [1% Triton X-100, 20 mM Tris-HCl (pH 8.0), 137 mM NaCl, 15% glycerol, 5 mM EDTA] containing phosphatase and protease inhibitors (1 mM phenylmethylsulfonyl fluoride, 5 μg/ml aprotinin, 5 μg/ml leupeptin, 1 mM sodium orthovanadate, 1 mM EGTA). Cell lysates were precleaned with 30 μl of washed Protein A Sepharose beads (15 μl packed beads) at 4° C. for 1 hour and 1 μg of polyclonal anti-phosphoserine antibody was added to 200 μg cell lysates diluted with 2×immunoprecipitation (IP) buffer [1×: 1% Triton X-100, 10 mM Tris-HCl (pH 7.4), 137 mM NaCl, 1 mM EDTA, 1 mM EGTA, 0.2 mM […], 0.2 mM PMSF, 0.5% NP-40]. The reaction mixture was incubated at 4° C. overnight under constant rocking. The immunecomplex was captured by adding 50 μl of washed Protein A sepharose beads (25 μl packed beads) and incubating the reaction mixture at 4° C. for an additional 2 hours. […]

FPRL1 [1] = biological target: T1, FPRL1 (Homo sapiens, UniProt P25090); assay: Ca2+ mobilization in FPRL1/293 cells; assay type: cell-based
T1 construct: expressed in transfected cells; host or cells: HEK 293
T1 sequence (P25090 1-351): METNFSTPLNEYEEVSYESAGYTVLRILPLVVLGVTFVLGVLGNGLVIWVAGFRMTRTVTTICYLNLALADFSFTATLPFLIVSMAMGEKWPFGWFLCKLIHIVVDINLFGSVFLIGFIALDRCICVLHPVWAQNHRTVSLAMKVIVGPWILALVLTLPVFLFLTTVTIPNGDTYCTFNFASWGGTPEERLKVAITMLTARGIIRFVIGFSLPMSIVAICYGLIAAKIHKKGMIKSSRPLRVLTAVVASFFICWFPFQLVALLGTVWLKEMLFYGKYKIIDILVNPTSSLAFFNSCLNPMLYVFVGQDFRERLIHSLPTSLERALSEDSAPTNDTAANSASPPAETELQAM
Description: (§1) Calcium mobilization was measured by incubating 2×10^7/ml cells in loading medium (DMEM, 10% FBS) with 5 μM Fura-2 AM (Molecular Probes, Eugene, Oreg.) for 30 min at room temperature in the dark. The dye-loaded cells were washed 3 times with loading medium and resuspended in saline buffer [138 mM NaCl, 6 mM KCl, 1 mM CaCl2, 10 mM HEPES (pH 7.4), 5 mM Glucose, 0.1% BSA] at a concentration of 1×10^6/ml. The cells were then transferred into quartz cuvettes (2 ml) which were placed in a luminescence spectrometer (LS-50B, Perkin-Elmer, Beaconsfield, England). Stimulants at different concentrations were added in a volume of 20 μl to each cuvette at the indicated time points. The ratio of fluorescence at 340 and 380 nm wavelength was calculated using a FL WinLab program (Perkin-Elmer).
(§2) Calcium mobilization was assayed by incubating 2×10^7/ml of monocytes, neutrophils, FPRL1 or FPR transfectants in loading buffer containing 138 mM NaCl, 6 mM KCl, 1 mM CaCl2, 10 mM HEPES (pH 7.4), 5 mM glucose, 0.1% BSA with 5 μM Fura-2 (Sigma) at 37° C. for 30 min. The dye-loaded cells were washed and resuspended in fresh loading buffer. The cells were then transferred into quartz cuvettes (10^6 cells in 2 ml) which were placed in a luminescence spectrometer LS50 B (Perkin-Elmer Limited, Beaconsfield, England). Stimulants at different concentrations were added in a volume of 20 μl to the cuvettes at indicated time points. The ratio of fluorescence at 340 and 380 nm wavelength was calculated using the FL WinLab program (Perkin-Elmer).

monocytes = assay: Ca2+ mobilization in monocytes (Fura-2); assay type: cell-based, human
Description: as §1, §2

FPRL1 [2] = biological target: T1, FPRL1; assay type: cell-based

Compound	time to increase in CCR5 phosphorylation after stimulation (CCR5)	serine phosphorylation of CCR5 (CCR5)	excess required to desensitize the effect of W peptide (Ca2+ flux) (FPRL1 [1]; FPRL1/293 cells)	minimal effective concentration to induce Ca2+ mobilization (FPRL1 [1]; FPRL1/293 cells, given as range in words)	response to W peptide (Ca2+ flux) (monocytes; concentrations in the micromolar range)	signaling of V3 peptide on cross-desensitization (monocytes; high concentration of fMLP (1 μM), V3 1.5 μM)	effect on W peptide-induced Ca2+ flux (monocytes; low concentrations (nM range))	migration / chemotaxis (FPRL1 [2])	time of maximal CCR5 phosphorylation (CCR5)	Ca2+ mobilization (FPRL1 [1]; HEK293 cells transfected to express FPRL1)	Ca2+ mobilization (monocytes)	attenuation of the cell response to chemokines including SDF-1α on sequential stimulation (monocytes; V3 peptide 1.5 μM)	migration / chemotaxis (FPRL1 [2]; FPRL1/293 cells)
CSCC[C@H](NC=O)C(=O)N[C@@H](CC(C)C)C(=O)N[C@@H](Cc1ccccc1)C(=O)O [fMLP, N-formyl-methionyl-leucyl-phenylalanine]	≤ 1 min	increased level of CCR5 phosphorylation; also recorded: induced CCR5 phosphorylation	10^5 fold excess	μM range	significantly attenuated	attenuated	limited effect	failed to migrate					
TRPNYNKRKRIHIGPGRAFYTTKNIIGTIRQAH-NH2 [V3 peptide]		induced significant serine phosphorylation of CCR5							15 min	induced both Ca^2+ mobilization and chemotaxis	mobilized Ca^2+	did not, however, attenuate	induced both Ca^2+ mobilization and chemotaxis
